Active and inactive are the calls of the source. No cut-off for these calls is given here.
Assays:
Format in all cases: functional
RXF 393 = experiment: Cytotoxicity against human RXF393 cells assessed as growth inhibition at 10 uM after 48 hrs by SRB assay
[1] = Cytotoxicity against human MOLT4 cells after 48 hrs by SRB assay; conditions: MOLT-4, 48 h
[2] = Cytotoxicity against human RPMI8226 cells after 48 hrs by SRB assay; conditions: RPMI-8226, 48 h
A549 = experiment: Cytotoxicity against human A549 cells after 48 hrs by SRB assay; conditions: A549, 48 h
NCI-H522 = experiment: Cytotoxicity against human NCI-H522 cells after 48 hrs by SRB assay; conditions: NCI-H522, 48 h
[3] = Cytotoxicity against human COLO205 cells after 48 hrs by SRB assay; conditions: COLO 205, 48 h
[4] = Cytotoxicity against human SW620 cells after 48 hrs by SRB assay; conditions: SW-620, 48 h
[5] = Cytotoxicity against human SF539 cells after 48 hrs by SRB assay; conditions: SF-539, 48 h
[6] = Cytotoxicity against human SNB19 cells after 48 hrs by SRB assay; conditions: SNB-19, 48 h
[7] = Cytotoxicity against human SNB75 cells after 48 hrs by SRB assay; conditions: SNB-75, 48 h; for CC50: read-out: LC50 (the source's name)
M14 = experiment: Cytotoxicity against human M14 cells after 48 hrs by SRB assay; conditions: M14, 48 h
MDA-MB-435 = experiment: Cytotoxicity against human MDA-MB-435 cells after 48 hrs by SRB assay; conditions: MDA-MB-435, 48 h
[8] = Cytotoxicity against human OVCAR8 cells after 48 hrs by SRB assay; conditions: OVCAR-8, 48 h
SN12C = experiment: Cytotoxicity against human SN12C cells after 48 hrs by SRB assay
[9] = Cytotoxicity against human PC3 cells after 48 hrs by SRB assay; conditions: PC-3, 48 h
IGROV-1 = experiment: Cytotoxicity against human IGROV1 cells assessed as growth inhibition at 10 uM after 48 hrs by SRB assay
SK-OV-3 = experiment: Cytotoxicity against human SKOV3 cells assessed as growth inhibition at 10 uM after 48 hrs by SRB assay
Hs-578T = experiment: Cytotoxicity against human Hs578T cells assessed as growth inhibition at 10 uM after 48 hrs by SRB assay
Malme-3M = experiment: Cytotoxicity against human MALME-3M cells after 48 hrs by SRB assay
HL-60(TB) = experiment: Cytotoxicity against human HL-60(TB) cells assessed as growth inhibition at 10 uM after 48 hrs by SRB assay
HOP-92 = experiment: Cytotoxicity against human HOP92 cells assessed as growth inhibition at 10 uM after 48 hrs by SRB assay
HCC 2998 = experiment: Cytotoxicity against human HCC2998 cells assessed as growth inhibition at 10 uM after 48 hrs by SRB assay
SF-295 = experiment: Cytotoxicity against human SF295 cells assessed as growth inhibition at 10 uM after 48 hrs by SRB assay

SMILES: C=C1CC[C@@H]2[C@](C)(COC(C)=O)[C@H](OC(C)=O)CC[C@@]2(C)[C@@H]1CC(NCCCC)C1=CCOC1=O (mixture of isomers)
- growth inhibition (GI) (RXF 393): inactive

SMILES: C=C1CC[C@@H]2[C@](C)(COC(C)=O)[C@H](OC(C)=O)CC[C@@]2(C)[C@@H]1CC(Nc1ccc(S(=O)(=O)NC(C)=O)cc1)C1=CCOC1=O (mixture of isomers)
- GI50 [1]: 2.2 µM
- LC50 [1]: > 75 µM
- TGI [1]: 6.66 µM
- GI50 [2]: 1.84 µM
- LC50 [2]: > 75 µM
- TGI [2]: 6.53 µM
- GI50 (A549): 8.41 µM
- LC50 (A549): 40 µM
- TGI (A549): 18.3 µM
- GI50 (NCI-H522): 1.44 µM
- LC50 (NCI-H522): 24.1 µM
- TGI (NCI-H522): 4.42 µM
- GI50 [3]: 1.81 µM
- LC50 [3]: 20 µM
- TGI [3]: 4.82 µM
- GI50 [4]: 1.61 µM
- LC50 [4]: 9.63 µM
- TGI [4]: 3.58 µM
- GI50 [5]: 2.39 µM
- LC50 [5]: 26.9 µM
- TGI [5]: 7.77 µM
- GI50 [6]: 8.19 µM
- LC50 (concentration killing 50% of cells) [6]: 43.7 µM
- TGI [6]: 18.9 µM
- GI50 [7]: 3.08 µM
- TGI [7]: 12.7 µM
- CC50 [7]: 30.9 µM
- GI50 (M14): 2.86 µM
- LC50 (M14): 45.8 µM
- TGI (M14): 11.9 µM
- GI50 (MDA-MB-435): 2.79 µM
- LC50 (50% lethal concentration) (MDA-MB-435): 30.6 µM
- TGI (MDA-MB-435): 10.6 µM
- GI50 [8]: 2.25 µM
- LC50 [8]: 38.6 µM
- TGI [8]: 8.42 µM
- GI50 (SN12C): 1.78 µM
- LC50 (concentration killing 50% of cells) (SN12C): 39.2 µM
- TGI (SN12C): 5.4 µM
- GI50 [9]: 6.56 µM
- LC50 [9]: 40 µM
- TGI [9]: 16.8 µM

SMILES: C=C1CC[C@@H]2[C@](C)(COC(C)=O)[C@H](OC(C)=O)CC[C@@]2(C)[C@@H]1C/C=C1/C(=O)OC[C@H]1OC(C)=O
- growth inhibition (GI) (IGROV-1): inactive
- growth inhibition (GI) (SK-OV-3): inactive
- growth inhibition (GI) (Hs-578T): inactive
- GI50 [1]: 3.8 µM
- LC50 [1]: > 100 µM
- TGI [1]: 16.1 µM
- GI50 [2]: 2.07 µM
- LC50 [2]: > 100 µM
- TGI [2]: 7.68 µM
- GI50 (A549): 11.9 µM
- LC50 (A549): 79.3 µM
- TGI (A549): 30.7 µM
- GI50 (NCI-H522): 1.52 µM
- LC50 (NCI-H522): 8.67 µM
- TGI (NCI-H522): 3.63 µM
- GI50 [3]: 3.37 µM
- LC50 [3]: > 100 µM
- TGI [3]: 11.4 µM
- GI50 [4]: 2.29 µM
- LC50 [4]: 41.1 µM
- TGI [4]: 5.85 µM
- GI50 [5]: 1.7 µM
- LC50 [5]: 6.08 µM
- TGI [5]: 3.22 µM
- GI50 [6]: 10.8 µM
- LC50 (concentration killing 50% of cells) [6]: 55.6 µM
- TGI [6]: 24.5 µM
- GI50 [7]: 2.83 µM
- TGI [7]: 14.2 µM
- CC50 [7]: 37.6 µM
- GI50 (Malme-3M): 2.97 µM
- LC50 (Malme-3M): 29.9 µM
- TGI (Malme-3M): 7.95 µM
- GI50 (M14): 2.22 µM
- LC50 (M14): 26.5 µM
- TGI (M14): 6.48 µM
- GI50 (MDA-MB-435): 2.63 µM
- LC50 (50% lethal concentration) (MDA-MB-435): 32.2 µM
- TGI (MDA-MB-435): 10.1 µM
- GI50 [8]: 3.38 µM
- LC50 [8]: > 100 µM
- TGI [8]: 22 µM
- GI50 (SN12C): 3.07 µM
- LC50 (concentration killing 50% of cells) (SN12C): 72 µM
- TGI (SN12C): 13.3 µM
- GI50 [9]: 6.07 µM
- LC50 [9]: 48.9 µM
- TGI [9]: 19.9 µM

SMILES: C=C1CC[C@@H]2[C@](C)(CO)[C@H](O)CC[C@@]2(C)[C@@H]1C/C=C1/C(=O)OC[C@H]1O [ANDROGRAPHOLIDE]
- growth inhibition (GI) (HL-60(TB)): inactive
- growth inhibition (GI) (HOP-92): inactive
- growth inhibition (GI) (HCC 2998): inactive
- growth inhibition (GI) (SF-295): inactive
- growth inhibition (GI) (IGROV-1): inactive
- growth inhibition (GI) (SK-OV-3): inactive
- growth inhibition (GI) (RXF 393): inactive
- growth inhibition (GI) (Hs-578T): inactive

SMILES: C=C1CC[C@@H]2[C@](C)(COC(C)=O)[C@H](OC(C)=O)CC[C@@]2(C)[C@@H]1CC(Sc1ccccc1)C1=CCOC1=O (mixture of isomers)
- GI50 [1]: 1.48 µM
- LC50 [1]: > 100 µM
- TGI [1]: 6.15 µM
- GI50 [2]: 0.34 µM
- LC50 [2]: > 100 µM
- TGI [2]: 2.73 µM
- GI50 (A549): 2.73 µM
- LC50 (A549): > 100 µM
- TGI (A549): 7.77 µM
- GI50 (NCI-H522): 1.35 µM
- LC50 (NCI-H522): 6.57 µM
- TGI (NCI-H522): 2.98 µM
- GI50 [3]: 1.49 µM
- LC50 [3]: > 100 µM
- TGI [3]: 3.98 µM
- GI50 [4]: 0.71 µM
- LC50 [4]: > 100 µM
- TGI [4]: 3.64 µM
- GI50 [6]: 1.78 µM
- LC50 (concentration killing 50% of cells) [6]: 7.97 µM
- TGI [6]: 3.77 µM
- GI50 [7]: 1.3 µM
- TGI [7]: 2.9 µM
- CC50 [7]: 6.47 µM
- GI50 (Malme-3M): 1.74 µM
- LC50 (Malme-3M): 7.59 µM
- TGI (Malme-3M): 3.63 µM
- GI50 (M14): 1.47 µM
- LC50 (M14): 9.23 µM
- TGI (M14): 3.69 µM
- GI50 (MDA-MB-435): 1.41 µM
- LC50 (50% lethal concentration) (MDA-MB-435): 9.09 µM
- TGI (MDA-MB-435): 3.58 µM
- GI50 [8]: 1.46 µM
- LC50 [8]: 70 µM
- TGI [8]: 4.7 µM
- GI50 (SN12C): 2.1 µM
- LC50 (concentration killing 50% of cells) (SN12C): > 100 µM
- TGI (SN12C): 7.07 µM
- GI50 [9]: 1.84 µM
- LC50 [9]: > 100 µM
- TGI [9]: 10.1 µM

Reference: ChEMBL document CHEMBL3734705, “Synthesis and in vitro cytotoxicity of novel C-12 substituted-14-deoxy-andrographolide derivatives as potent anti-cancer agents” (2015)
